The IC50 is the concentration that inhibits the measured activity by half.

Consider 31 compounds from patent US8575360B2, “Derivatives of 6,7-dihydro-5H-imidazo[1,2-a]imidazole-3-carboxylic acid amides” (Boehringer Ingelheim International GmbH, priority 2009, dated 2013).

The target of this assay is T1, LFA-1 (CD18/CD11a) binding to ICAM-1 (Homo sapiens, UniProt P05107+P20701).
T1 construct: followed by purified LFA-1 (in buffer of 50 mM triethylamine, 150 mM NaCl, 1% beta octylglucoside)
Kind of assay: LFA-1/Biotin-sICAM-1 AlphaScreen assay: inhibition of LFA-1 binding to ICAM-1. The following applies: 37° C. 90 minutes, highest compound concentration 1 μM. An excerpt:
Assay to Determine Inhibition of LFA-1 Binding to ICAM-1
This assay protocol is designed to study the direct antagonism, by a test compound, of the interaction of ICAM-1 with the Leukointegrin CD18/CD11a (LFA-1).
The LFA-1/Biotin-sICAM-1 molecular assay measures the ability of test compounds to inhibit binding of LFA-1 to Biotinylated-sICAM using AlphaScreen technology (Ref: Wilson, J, Rossi, C P, Carboni, S, Fremaux, C, Perrin, D, Soto, C, Kosco-Vilbois, M, and Scheer, A: A Homogeneous 384-Well High-Throughput Binding Assay for a TNF Receptor Using Alphascreen Technology. J Biomol Screen 2003; 8:522-532) that uses TS2/4(anti-LFA-1)-custom conjugated AlphaLisa acceptor beads and streptavidin-coated donor beads from PerkinElmer. The assay was performed in white OptiPlates-384 in a volume of 60 μL using assay buffer (Dulbecco's PBS containing calcium and magnesium, 2 mM MgCl2, 0.1 mM PMSF, 0.1% BSA, pH 7.1). To each well, Biotin-sICAM was added followed by purified LFA-1 (in buffer of 50 mM triethylamine, 150 mM NaCl, 1% beta octylglucoside, 2 mM MgCl2 neutralized to pH with 1M Tris-HCl, pH 7.5). For compound testing, compound was added in 5 uL to the above in 25 uL. LFA-1 and Biotin-sICAM-1 were used at concentrations that would yield a signal to background ratio of 8-10. The highest concentration of compound was 1 μM in 1% DMSO. Positive controls were wells without compound containing LFA-1, while blanks were wells without both compound and LFA-1. Plates were mixed and incubated at 37° C. for 90 minutes. This was followed by addition of 15 μL/well TS2/4-conjugated acceptor beads diluted in PBS containing 0.1% BSA for a final concentration of 10 μg/mL. The plates were mixed and incubated in the dark for 30 minutes at room temperature followed by addition of 15 μL/well streptavidin-coated donor beads diluted in PBS containing 0.1% BSA at a final concentration of 15 μg/mL. The plates were mixed and incubated in the dark for 60 minutes at room temperature and then read on an EnVision Multilabel Reader using AlphaScreen 384-well OptiPlate protocol.
(Alpha assays give light when donor and acceptor beads are brought close together.)

T1 sequence (P20701 26-1170): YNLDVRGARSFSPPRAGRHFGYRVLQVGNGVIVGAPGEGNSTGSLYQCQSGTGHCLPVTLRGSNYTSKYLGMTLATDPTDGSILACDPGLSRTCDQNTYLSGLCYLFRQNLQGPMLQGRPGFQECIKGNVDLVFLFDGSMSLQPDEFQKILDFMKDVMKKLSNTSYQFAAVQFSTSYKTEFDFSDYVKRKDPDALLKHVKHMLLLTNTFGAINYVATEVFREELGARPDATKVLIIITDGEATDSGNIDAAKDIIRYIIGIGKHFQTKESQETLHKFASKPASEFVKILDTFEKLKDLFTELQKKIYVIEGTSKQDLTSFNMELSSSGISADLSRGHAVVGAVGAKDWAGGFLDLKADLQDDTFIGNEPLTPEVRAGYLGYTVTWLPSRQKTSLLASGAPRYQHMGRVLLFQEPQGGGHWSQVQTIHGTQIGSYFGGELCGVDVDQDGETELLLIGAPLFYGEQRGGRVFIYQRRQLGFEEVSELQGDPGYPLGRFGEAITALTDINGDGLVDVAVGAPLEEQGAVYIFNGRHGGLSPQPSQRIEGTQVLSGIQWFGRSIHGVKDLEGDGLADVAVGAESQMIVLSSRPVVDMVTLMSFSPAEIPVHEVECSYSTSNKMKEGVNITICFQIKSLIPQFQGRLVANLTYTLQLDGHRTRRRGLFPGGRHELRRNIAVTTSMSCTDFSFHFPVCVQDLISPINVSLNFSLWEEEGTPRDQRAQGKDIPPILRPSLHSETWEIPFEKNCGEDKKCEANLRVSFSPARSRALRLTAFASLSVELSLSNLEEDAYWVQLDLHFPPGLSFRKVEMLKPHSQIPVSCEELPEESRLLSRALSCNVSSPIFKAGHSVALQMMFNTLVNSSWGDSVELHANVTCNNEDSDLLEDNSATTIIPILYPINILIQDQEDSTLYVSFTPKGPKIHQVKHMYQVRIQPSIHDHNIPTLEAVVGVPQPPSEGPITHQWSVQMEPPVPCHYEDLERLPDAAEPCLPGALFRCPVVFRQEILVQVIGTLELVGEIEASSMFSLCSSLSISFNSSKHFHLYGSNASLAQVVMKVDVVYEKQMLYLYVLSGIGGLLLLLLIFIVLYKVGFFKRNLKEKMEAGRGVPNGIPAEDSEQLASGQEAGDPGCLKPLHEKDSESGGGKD
T1 sequence (P05107 23-769 partner): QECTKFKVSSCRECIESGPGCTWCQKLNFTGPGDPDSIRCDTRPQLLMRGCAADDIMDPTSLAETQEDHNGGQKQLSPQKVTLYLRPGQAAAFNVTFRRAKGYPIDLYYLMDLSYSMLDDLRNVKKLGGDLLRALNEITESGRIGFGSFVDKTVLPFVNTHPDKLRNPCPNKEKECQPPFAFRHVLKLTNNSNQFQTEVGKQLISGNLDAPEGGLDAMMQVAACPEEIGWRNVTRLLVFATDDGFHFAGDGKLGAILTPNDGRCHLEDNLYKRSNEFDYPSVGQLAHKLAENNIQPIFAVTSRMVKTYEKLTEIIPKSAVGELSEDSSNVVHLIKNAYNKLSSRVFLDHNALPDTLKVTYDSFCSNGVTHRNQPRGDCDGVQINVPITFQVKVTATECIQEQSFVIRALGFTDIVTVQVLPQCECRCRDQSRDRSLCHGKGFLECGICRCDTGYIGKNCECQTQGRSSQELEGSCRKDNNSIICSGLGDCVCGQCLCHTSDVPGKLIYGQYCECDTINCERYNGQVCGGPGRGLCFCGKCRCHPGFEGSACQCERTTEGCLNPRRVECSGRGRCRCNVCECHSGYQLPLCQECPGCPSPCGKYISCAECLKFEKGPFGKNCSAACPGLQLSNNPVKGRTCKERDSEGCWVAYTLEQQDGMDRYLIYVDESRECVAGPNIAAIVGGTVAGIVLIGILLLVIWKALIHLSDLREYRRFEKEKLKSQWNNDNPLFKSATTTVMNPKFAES

The compound `C[C@H](NC(=O)c1cnc2n1[C@](C)(Cc1ccc(C#N)cc1)C(=O)N2c1cc(Cl)c(F)c(Cl)c1)C(=O)NC1(c2ccc(-c3cn[nH]c3)cn2)CC1` [Compound 93] came in with an IC50 of 0.7 nM.

`CC(O)C(NC(=O)c1cnc2n1C(C)(Cc1ccc(C#N)cc1)C(=O)N2c1cc(Cl)c(F)c(Cl)c1)C(=O)NC1(c2ccc(-c3cnn(C)c3)nc2)CC1` (stereo not shown) [Compound 152] showed an IC50 of 1.1 nM.

On to `Cc1ccc(-c2ccc(C3(NC(=O)C4(NC(=O)c5cnc6n5[C@](C)(Cc5ccc(C#N)cc5)C(=O)N6c5cc(Cl)cc(Cl)c5)CC4)CC3)nc2)cn1` [Compound 62], for which the IC50 worked out at 1.1 nM.

In turn, `Cn1cc(-c2ccc(C3(NC(=O)C4(NC(=O)c5cnc6n5[C@](C)(Cc5ccc(C#N)cc5)C(=O)N6c5cc(Cl)c(F)c(Cl)c5)CC4)CC3)nc2)c(C2CC2)n1` [Compound 14] displayed an IC50 of 1.1 nM.

Take `Cn1cc(-c2ccc(C3(NC(=O)C4(NC(=O)c5cnc6n5[C@](C)(Cc5ccc(C#N)cc5)C(=O)N6c5cc(Cl)cc(C(F)(F)F)c5)CC4)CC3)nc2)cn1` [Compound 51]: the IC50 came to 1.2 nM.

`Cn1cc(-c2ccc(C3(NC(=O)C4(NC(=O)c5cnc6n5[C@](C)(Cc5ccc(C#N)cc5)C(=O)N6c5cc(Cl)c(F)c(Cl)c5)CC4)CC3)nn2)c(C2CC2)n1` [Compound 15] showed an IC50 of 1.6 nM.

For the compound `Cc1nn(C)cc1-c1cnc(C2(NC(=O)C3(NC(=O)c4cnc5n4[C@](C)(Cc4ccc(C#N)cc4)C(=O)N5c4cc(Cl)c(F)c(Cl)c4)CC3)CC2)nc1` [Compound 111], the IC50 worked out at 1.6 nM.

`C[C@@]1(Cc2ccc(C#N)cc2)C(=O)N(c2cc(Cl)cc(Cl)c2)c2ncc(C(=O)NC3(C(=O)NC4(c5ccc(-c6ccc(C(N)=O)cc6)cn5)CC4)CC3)n21` [Compound 131] showed an IC50 of 0.99 nM.

Regarding `CC1(Cc2ccc(C#N)cc2)C(=O)N(c2cc(Cl)cc(Cl)c2)c2ncc(C(=O)NC3(C(=O)NC4(c5ccc(-c6cnoc6)cn5)CC4)CC3)n21` (stereo not shown) [Compound 127], the IC50 worked out at 0.34 nM.

`C[C@@]1(Cc2ccc(C#N)cc2)C(=O)N(c2cc(Cl)cc(Cl)c2)c2ncc(C(=O)NC3(C(=O)NC4(c5ccc(-c6cccc(O)c6)cn5)CC4)CC3)n21` [Compound 142] had an IC50 of 1.7 nM.

In turn, `C[C@@]1(Cc2ccc(C#N)cc2)C(=O)N(c2cc(Cl)c(F)c(Cl)c2)c2ncc(C(=O)NC3(C(=O)NC4(c5ccc(-c6cccc(C(N)=O)c6)cn5)CC4)CC3)n21` [Compound 70] had a half-inhibitory concentration (IC50) of 0.8 nM.

As for `C[C@@H](NC(=O)[C@@H](NC(=O)c1cnc2n1[C@](C)(Cc1ccc(C#N)cc1)C(=O)N2c1cc(Cl)c(F)c(Cl)c1)[C@@H](C)O)c1ccc(-c2ccc(CO)nc2)cn1` [Compound 119], the IC50 turned out to be 0.85 nM.

`C[C@@]1(Cc2ccc(C#N)cc2)C(=O)N(c2cc(Cl)cc(Cl)c2)c2ncc(C(=O)NC3(C(=O)NC4(c5ccc(-c6ccc(NS(C)(=O)=O)cc6)cn5)CC4)CC3)n21` [Compound 133]: the IC50 was 1.5 nM.

In turn, `Cc1nn(C)cc1-c1ccc(C2(NC(=O)C3(NC(=O)c4cnc5n4[C@](C)(Cc4ccc(C#N)cc4)C(=O)N5c4cc(Cl)c(F)c(Cl)c4)CC3)CC2)nc1` [Compound 123] had an IC50 of 1.4 nM.

As to `Cn1cc(-c2cnc(C3(NC(=O)C4(NC(=O)c5cnc6n5[C@](C)(Cc5ccc(C#N)cc5)C(=O)N6c5cc(Cl)c(F)c(Cl)c5)CC4)CC3)nc2)cn1` [Compound 31], the IC50 is 0.51 nM.

For the compound `C[C@@]1(Cc2ccc(C#N)cc2)C(=O)N(c2cc(Cl)c(F)c(Cl)c2)c2ncc(C(=O)NC3(C(=O)NC4(c5ccc(-c6ccc(CO)cc6)nn5)CC4)CC3)n21` [Compound 37], the 50% inhibitory concentration (IC50) was 0.89 nM.

The compound `C[C@@]1(Cc2ccc(C#N)cc2)C(=O)N(c2cc(Cl)c(F)c(Cl)c2)c2ncc(C(=O)NC3(C(=O)NC4(c5ccc(-c6cccc(S(N)(=O)=O)c6)cn5)CC4)CC3)n21` [Compound 115] gave an IC50 of 1.8 nM.

`Cc1ccc(-c2ccc(C(C)NC(=O)C(NC(=O)c3cnc4n3C(C)(Cc3ccc(C#N)cc3)C(=O)N4c3cc(Cl)c(F)c(Cl)c3)C(C)O)nc2)cn1` (stereo not shown) [Compound 30] yielded an IC50 of 0.61 nM.

`C[C@@]1(Cc2ccc(C#N)cc2)C(=O)N(c2cc(Cl)c(F)c(Cl)c2)c2ncc(C(=O)NC3(C(=O)NC4(c5ccc(-c6cn[nH]c6)cn5)CC4)CC3)n21` [Compound 11]: the IC50 is 1.2 nM.

`Cn1cc(-c2ccc(C3(NC(=O)C4(NC(=O)c5cnc6n5[C@](C)(Cc5ccc(C#N)cc5)C(=O)N6c5cc(Cl)c(F)c(Cl)c5)CC4)CC3)nn2)cn1` [Compound 35]: the IC50 is 0.48 nM.

Turning to `Cn1ncc(-c2ccc(C3(NC(=O)C4(NC(=O)c5cnc6n5[C@](C)(Cc5ccc(C#N)cc5)C(=O)N6c5cc(Cl)c(F)c(Cl)c5)CC4)CC3)nc2)c1C1CC1` [Compound 13], the IC50 was 1.8 nM.

With `C[C@@]1(Cc2ccc(C#N)cc2)C(=O)N(c2cc(Cl)cc(Cl)c2)c2ncc(C(=O)NC3(C(=O)NC4(c5ccc(-c6ccc(S(C)(=O)=O)cc6)cn5)CC4)CC3)n21` [Compound 134], the IC50 turned out to be 0.64 nM.

As to `C[C@@]1(Cc2ccc(C#N)cc2)C(=O)N(c2cc(Cl)c(F)c(Cl)c2)c2ncc(C(=O)NC3(C(=O)NC4(c5ncc(-c6cn[nH]c6)cn5)CC4)CC3)n21` [Compound 33], the IC50 stood at 0.57 nM.

As for `C[C@@]1(Cc2ccc(OC(F)(F)F)cc2)C(=O)N(c2cc(Cl)c(F)c(Cl)c2)c2ncc(C(=O)NC3(C(=O)NC4(c5ccc(-c6ccc(N)nc6)cn5)CC4)CC3)n21` [Compound 20], the IC50 was determined as 1.5 nM.

Consider `Cc1nn(C)cc1-c1ccc(C(C)NC(=O)C(NC(=O)c2cnc3n2C(C)(Cc2ccc(C#N)cc2)C(=O)N3c2cc(Cl)c(F)c(Cl)c2)C(C)O)nc1` (stereo not shown) [Compound 121], for which the IC50 was 1.1 nM.

With `Cn1cc(-c2ccc(C3(NC(=O)C4(NC(=O)c5cnc6n5[C@](C)(Cc5ccc(C#N)cc5)C(=O)N6c5cc(Cl)cc(Cl)c5)CC4)CC3)nc2)cn1` [Compound 149], the IC50 amounted to 0.33 nM.

In the case of `C[C@@]1(Cc2ccc(C#N)cc2)C(=O)N(c2cc(Cl)cc(Cl)c2)c2ncc(C(=O)NC3(C(=O)NC4(c5ccc(-c6cccc(C(=O)O)c6)cn5)CC4)CC3)n21` [Compound 52], the IC50 is 0.72 nM.

Compound `C[C@H](NC(=O)c1cnc2n1[C@](C)(Cc1ccc(C#N)cc1)C(=O)N2c1cc(Cl)c(F)c(Cl)c1)C(=O)NC1(c2ccc(-c3ccc(CO)nc3)nc2)CC1` [Compound 90] returned an IC50 of 0.28 nM.

As to `Cc1ccc(-c2ccc(C3(NC(=O)C4(NC(=O)c5cnc6n5[C@](C)(Cc5ccc(C#N)cc5)C(=O)N6c5cc(Cl)c(F)c(Cl)c5)CC4)CC3)nc2)cn1` [Compound 18], the IC50 was found to be 1.4 nM.

The compound `C[C@@]1(Cc2ccc(C#N)cc2)C(=O)N(c2cc(Cl)cc(Cl)c2)c2ncc(C(=O)NC3(C(=O)NC4(c5ccc(-c6ccc(CO)cc6)cn5)CC4)CC3)n21` [Compound 136] yielded an IC50 of 0.56 nM.

The compound `Cc1nn(C)cc1-c1ccc(C2(NC(=O)[C@@H](NC(=O)c3cnc4n3[C@](C)(Cc3ccc(C#N)cc3)C(=O)N4c3cc(Cl)c(F)c(Cl)c3)[C@@H](C)O)CC2)nc1` [Compound 155] registered an IC50 of 0.56 nM.
